Measurements reported in US20250214991A1 (Oncopia Therapeutics, Inc. d/b/a/ SK Life Science Labs, priority 2022, published 2025).

Assays:
[1] = target: T1, IKZF2 (Homo sapiens (Human), UniProt Q96SW2+Q9UKS7); assay: In vitro IKZF2 HiBit Assay (HEK293T Flp-in-HiBiT cells); type: cell-based; conditions: HEK293T Flp-in-HiBiT cells, 6 hrs incubation; for DC50: read-out: IKZF2 HiBit DC50; for Dmax: HEK-293T, read-out: IKZF2 HiBit Dmax (%)
Outline: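 HEK293T Flp-in cells carrying an endogenous N-terminal HiBiT tag on IKZF2 were exposed to compound for 6 h at 0.1% DMSO. The dilution series was 11 doses at 3-fold, diluted from 1 mM. Nano-Glo HiBiT lytic luminescence, normalized to DMSO, gave DC50 for 50% degradation and Dmax across the concentration range, both reported in letter bins.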

[2] = target: CRBN/DDB1 (Homo sapiens (Human), UniProt Q96SW2); assay: IC50 measurements for binding to CRBN/DDB1 (HTRF); conditions: His tagged CRBN+DDB, Cy5-labeled Thalidomide probe, one hour
Outline: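 HTRF competition binding with 2 nM His-tagged CRBN-DDB1 complex, 60 nM Cy5-thalidomide probe and 0.4 nM anti-His Tb cryptate in 50 mM HEPES pH 7.5, 1 mM TCEP, 0.01% Brij-35, 50 mM NaCl, 0.1% BSA. Read after 1 h at room temperature; IC50 from four-parameter dose-response fit.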

[3] = target: T1, IKZF2; assay: In vitro IKZF2 FACS Assay in Jurkat cells; type: cell-based; conditions: 24 hrs; for DC50: half maximal degradation concentration; for Dmax: maximal degradation percentage
Method: In vitro IKZF2 FACS Assay
DC50, A: <1 nM; B: 1-10 nM; C: 10-100 nM; D: 100-1000 nM; E: >1000 nM. Dmax, A: >80%; B: 60-80%; C: 40-60%; D: 20-40%; E: <20%.

[4] = target: IKZF1 (Homo sapiens (Human), UniProt Q13422+Q96SW2); assay: In vitro IKZF1 HiBit Assay (HEK293T Flp-in-HiBiT-IKZF1 stable cell line); type: cell-based; conditions: HEK293T Flp-in-HiBiT-IKZF1 stable cell line, 6 hrs incubation; for DC50: read-out: IKZF1 HiBit DC50; for Dmax: HEK-293T, read-out: IKZF1 HiBit Dmax (%)
Outline: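 HEK293T Flp-in cells carrying N-terminal HiBiT-tagged IKZF1 were exposed to compound (0.1% DMSO) for 6 h at 3000 cells/well. HiBiT luminescence was read after lytic LgBiT detection. DC50 and Dmax were taken from DMSO-normalized dose-response curves.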

T1 sequence (Q9UKS7 whole entry): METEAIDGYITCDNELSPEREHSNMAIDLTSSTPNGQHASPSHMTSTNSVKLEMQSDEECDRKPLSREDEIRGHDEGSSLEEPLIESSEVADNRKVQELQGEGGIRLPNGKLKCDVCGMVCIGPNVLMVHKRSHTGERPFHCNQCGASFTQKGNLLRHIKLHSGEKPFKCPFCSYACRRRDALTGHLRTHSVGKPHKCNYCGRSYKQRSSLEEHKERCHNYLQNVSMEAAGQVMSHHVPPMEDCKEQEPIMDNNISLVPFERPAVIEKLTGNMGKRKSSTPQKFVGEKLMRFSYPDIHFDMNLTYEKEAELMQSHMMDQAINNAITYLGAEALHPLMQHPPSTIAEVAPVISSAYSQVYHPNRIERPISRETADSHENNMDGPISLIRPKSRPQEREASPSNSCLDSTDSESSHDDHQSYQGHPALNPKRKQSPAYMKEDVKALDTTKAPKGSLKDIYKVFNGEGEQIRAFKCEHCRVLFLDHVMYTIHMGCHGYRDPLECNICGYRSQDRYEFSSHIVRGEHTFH
T1 sequence (Q96SW2 whole entry): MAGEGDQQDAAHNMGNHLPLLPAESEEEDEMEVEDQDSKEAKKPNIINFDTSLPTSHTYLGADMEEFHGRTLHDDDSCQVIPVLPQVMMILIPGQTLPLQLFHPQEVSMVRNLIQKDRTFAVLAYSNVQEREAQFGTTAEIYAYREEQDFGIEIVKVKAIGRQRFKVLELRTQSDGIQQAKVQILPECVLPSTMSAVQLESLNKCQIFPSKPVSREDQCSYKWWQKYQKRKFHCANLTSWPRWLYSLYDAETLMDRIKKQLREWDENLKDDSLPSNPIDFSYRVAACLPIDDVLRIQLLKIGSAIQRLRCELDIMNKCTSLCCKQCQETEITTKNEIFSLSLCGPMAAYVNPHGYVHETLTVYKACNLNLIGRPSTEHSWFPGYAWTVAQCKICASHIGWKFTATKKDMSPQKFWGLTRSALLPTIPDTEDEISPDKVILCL
T1 sequence (Q16531 2-1140 partner): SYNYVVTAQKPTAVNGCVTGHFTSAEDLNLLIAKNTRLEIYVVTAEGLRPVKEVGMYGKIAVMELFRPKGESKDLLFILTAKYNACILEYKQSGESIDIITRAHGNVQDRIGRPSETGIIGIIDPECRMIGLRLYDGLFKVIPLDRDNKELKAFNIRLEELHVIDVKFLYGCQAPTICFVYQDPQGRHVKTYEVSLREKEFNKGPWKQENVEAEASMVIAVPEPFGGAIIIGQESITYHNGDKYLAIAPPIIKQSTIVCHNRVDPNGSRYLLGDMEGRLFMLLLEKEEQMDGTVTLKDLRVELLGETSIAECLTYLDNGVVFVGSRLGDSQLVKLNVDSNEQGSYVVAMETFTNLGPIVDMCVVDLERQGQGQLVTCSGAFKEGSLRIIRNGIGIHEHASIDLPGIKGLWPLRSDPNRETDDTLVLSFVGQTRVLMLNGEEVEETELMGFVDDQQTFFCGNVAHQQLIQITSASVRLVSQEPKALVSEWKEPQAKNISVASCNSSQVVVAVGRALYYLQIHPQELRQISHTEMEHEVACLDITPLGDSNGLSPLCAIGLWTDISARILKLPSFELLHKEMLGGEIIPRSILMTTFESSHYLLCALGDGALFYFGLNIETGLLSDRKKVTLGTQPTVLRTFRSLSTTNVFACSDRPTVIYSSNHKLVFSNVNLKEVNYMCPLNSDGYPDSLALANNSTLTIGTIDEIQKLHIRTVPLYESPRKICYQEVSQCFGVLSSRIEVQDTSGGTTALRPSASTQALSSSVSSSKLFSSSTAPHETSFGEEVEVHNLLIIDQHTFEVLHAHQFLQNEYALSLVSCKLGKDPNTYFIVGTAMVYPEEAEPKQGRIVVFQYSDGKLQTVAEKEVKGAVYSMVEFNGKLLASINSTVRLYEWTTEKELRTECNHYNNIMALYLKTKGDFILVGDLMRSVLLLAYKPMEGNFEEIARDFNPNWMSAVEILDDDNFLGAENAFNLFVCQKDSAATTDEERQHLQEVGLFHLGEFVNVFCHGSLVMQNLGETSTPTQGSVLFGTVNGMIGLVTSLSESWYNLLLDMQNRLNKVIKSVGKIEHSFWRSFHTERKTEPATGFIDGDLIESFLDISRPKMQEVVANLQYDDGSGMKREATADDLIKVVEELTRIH
Chain of CRBN/DDB1 (Q96SW2 whole entry, species assumed): as the sequence (Q96SW2 whole entry) above
Chain of CRBN/DDB1 (Q16531 whole entry partner, species assumed): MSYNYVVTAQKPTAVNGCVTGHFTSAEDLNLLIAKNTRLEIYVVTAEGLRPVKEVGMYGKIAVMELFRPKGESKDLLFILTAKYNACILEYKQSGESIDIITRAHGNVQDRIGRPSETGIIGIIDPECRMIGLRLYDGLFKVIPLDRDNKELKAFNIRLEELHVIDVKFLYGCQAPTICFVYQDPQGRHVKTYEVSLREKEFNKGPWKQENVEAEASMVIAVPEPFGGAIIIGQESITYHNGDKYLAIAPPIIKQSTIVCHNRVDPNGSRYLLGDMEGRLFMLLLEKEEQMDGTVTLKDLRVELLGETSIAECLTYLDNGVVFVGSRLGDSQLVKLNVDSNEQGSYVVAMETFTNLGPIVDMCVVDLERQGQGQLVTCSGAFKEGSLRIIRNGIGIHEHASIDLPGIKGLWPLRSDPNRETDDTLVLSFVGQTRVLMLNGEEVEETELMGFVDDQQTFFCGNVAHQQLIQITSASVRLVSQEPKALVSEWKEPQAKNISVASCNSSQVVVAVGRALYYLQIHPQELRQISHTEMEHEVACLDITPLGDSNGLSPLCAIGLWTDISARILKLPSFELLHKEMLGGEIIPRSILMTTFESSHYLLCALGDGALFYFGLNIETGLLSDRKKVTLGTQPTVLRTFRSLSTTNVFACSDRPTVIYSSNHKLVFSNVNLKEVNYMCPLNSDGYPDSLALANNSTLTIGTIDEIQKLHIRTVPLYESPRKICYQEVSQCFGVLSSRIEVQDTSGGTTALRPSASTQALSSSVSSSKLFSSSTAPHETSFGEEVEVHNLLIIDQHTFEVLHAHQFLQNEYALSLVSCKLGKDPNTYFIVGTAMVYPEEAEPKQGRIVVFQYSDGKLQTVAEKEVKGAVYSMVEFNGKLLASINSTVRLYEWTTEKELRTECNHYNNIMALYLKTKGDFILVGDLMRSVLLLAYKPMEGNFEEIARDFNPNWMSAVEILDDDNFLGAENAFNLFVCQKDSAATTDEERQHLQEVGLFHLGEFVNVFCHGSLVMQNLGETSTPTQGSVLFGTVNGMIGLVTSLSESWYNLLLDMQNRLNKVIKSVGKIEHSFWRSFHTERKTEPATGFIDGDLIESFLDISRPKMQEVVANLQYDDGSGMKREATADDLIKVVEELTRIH
Chain of IKZF1 (Q13422 whole entry): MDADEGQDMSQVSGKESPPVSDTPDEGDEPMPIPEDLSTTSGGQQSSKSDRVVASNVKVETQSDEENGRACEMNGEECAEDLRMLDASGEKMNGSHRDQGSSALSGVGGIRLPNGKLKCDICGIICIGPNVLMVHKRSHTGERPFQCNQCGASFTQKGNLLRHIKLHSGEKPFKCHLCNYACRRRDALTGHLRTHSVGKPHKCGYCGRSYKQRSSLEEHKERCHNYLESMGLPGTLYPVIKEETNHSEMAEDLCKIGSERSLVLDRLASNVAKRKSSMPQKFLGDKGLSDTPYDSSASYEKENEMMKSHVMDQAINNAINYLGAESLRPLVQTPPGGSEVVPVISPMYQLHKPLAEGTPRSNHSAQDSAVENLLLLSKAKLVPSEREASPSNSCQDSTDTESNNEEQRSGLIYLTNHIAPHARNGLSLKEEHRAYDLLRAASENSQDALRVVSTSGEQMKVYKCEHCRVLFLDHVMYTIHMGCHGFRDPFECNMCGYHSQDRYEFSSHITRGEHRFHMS
Chain of IKZF1 (Q96SW2 whole entry): as the sequence (Q96SW2 whole entry) above
Chain of IKZF1 (Q16531 2-1140 partner): as the sequence (Q16531 2-1140 partner) above

Compound: O=C1CCC(N2Cc3cc(-c4cc(CN5CCCC5)cc5cncn45)ccc3C2=O)C(=O)N1 (centres unmarked) [Example 1, 3-(1-oxo-5-(7-(pyrrolidin-1-ylmethyl)imidazo[1,5-a]pyridin-5-yl)isoindolin-2-yl) piperidine-2,6-dione]
- DC50 [1]: 10 to 100 nM
- Dmax [1]: 60 to 80%
- IC50 [2]: 100 to 500 nM
- DC50 [3]: 10 to 100 nM
- Dmax [3]: 60 to 80%
- DC50 [4]: > 10000 nM
- Dmax [4]: < 20%

Compound: O=C1CCC(N2Cc3cc(-c4cc(CN5CCCCC5)cc5cncn45)ccc3C2=O)C(=O)N1 (centres unmarked) [Example 3, 3-(1-oxo-5-(7-(piperidin-1-ylmethyl)imidazo[1,5-a]pyridin-5-yl)isoindolin-2-yl) piperidine-2,6-dione]
- DC50 [1]: 10 to 100 nM
- Dmax [1]: 60 to 80%
- IC50 [2]: 100 to 500 nM
- DC50 [3]: 10 to 100 nM
- Dmax [3]: 40 to 60%
- DC50 [4]: > 10000 nM
- Dmax [4]: < 20%

Compound: O=C1CCC(N2Cc3cc(-c4cc(CN5CCOCC5)cc5cncn45)ccc3C2=O)C(=O)N1 (centres unmarked) [Example 4, 3-(5-(7-(morpholinomethyl)imidazo[1,5-a]pyridin-5-yl)-1-oxoisoindolin-2-yl) piperidine-2,6-dione]
- IC50 [2]: 1000 to 5000 nM
- DC50 [3]: > 1000 nM
- Dmax [3]: 20 to 40%

Compound: CC1CCCN(Cc2cc(-c3ccc4c(c3)CN(C3CCC(=O)NC3=O)C4=O)n3cncc3c2)C1 (centres unmarked) [Example 5, 3-(5-(7-((3-methylpiperidin-1-yl)methyl)imidazo[1,5-a]pyridin-5-yl)-1-oxoisoindolin-2-yl) piperidine-2,6-dione]
- IC50 [2]: 1000 to 5000 nM
- DC50 [3]: 10 to 100 nM
- Dmax [3]: 40 to 60%

Compound: CC1CCN(Cc2cc(-c3ccc4c(c3)CN(C3CCC(=O)NC3=O)C4=O)n3cncc3c2)C1 (centres unmarked) [Example 6, 3-(5-(7-((3-methylpyrrolidin-1-yl)methyl)imidazo[1,5-a]pyridin-5-yl)-1-oxoisoindolin-2-yl) piperidine-2,6-dione]
- DC50 [1]: 10 to 100 nM
- Dmax [1]: 60 to 80%
- IC50 [2]: 100 to 500 nM
- DC50 [3]: 10 to 100 nM
- Dmax [3]: 60 to 80%
- DC50 [4]: > 10000 nM
- Dmax [4]: < 20%

Compound: O=C1CCC(N2Cc3cc(-c4cc(CN5CC6CC6C5)cc5cncn45)ccc3C2=O)C(=O)N1 (centres unmarked) [Example 7, 3-(5-(7-((3-azabicyclo[3.1.0]hexan-3-yl)methyl)imidazo[1,5-a]pyridin-5-yl)-1-oxoisoindolin-2-yl) piperidine-2,6-dione]
- IC50 [2]: 500 to 1000 nM
- DC50 [3]: 10 to 100 nM
- Dmax [3]: 40 to 60%

Compound: O=C1CCC(N2Cc3cc(-c4cc(CN5CCC6(CC5)CC6)cc5cncn45)ccc3C2=O)C(=O)N1 (centres unmarked) [Example 8, 3-(5-(7-((6-azaspiro[2.5]octan-6-yl)methyl)imidazo[1,5-a]pyridin-5-yl)-1-oxoisoindolin-2-yl) piperidine-2,6-dione]
- DC50 [1]: 10 to 100 nM
- Dmax [1]: 40 to 60%
- IC50 [2]: 1000 to 5000 nM
- DC50 [3]: 10 to 100 nM
- Dmax [3]: 40 to 60%
- DC50 [4]: > 10000 nM
- Dmax [4]: < 20%

Compound: O=C1CCC(N2Cc3cc(-c4cc(CN5CCC6(CCC6)CC5)cc5cncn45)ccc3C2=O)C(=O)N1 (centres unmarked) [Example 9, 3-(5-(7-((7-azaspiro[3.5]nonan-7-yl)methyl)imidazo[1,5-a]pyridin-5-yl)-1-oxoisoindolin-2-yl) piperidine-2,6-dione]
- IC50 [2]: 500 to 1000 nM
- DC50 [3]: 10 to 100 nM
- Dmax [3]: 40 to 60%

Compound: O=C1CCC(N2Cc3cc(-c4cc(CN5CCC6(CC5)COC6)cc5cncn45)ccc3C2=O)C(=O)N1 (centres unmarked) [Example 10, 3-(5-(7-((2-oxa-7-azaspiro[3.5]nonan-7-yl)methyl)imidazo[1,5-a]pyridin-5-yl)-1-oxoisoindolin-2-yl) piperidine-2,6-dione]
- DC50 [1]: 1000 to 10000 nM
- Dmax [1]: 40 to 60%
- IC50 [2]: 500 to 1000 nM
- DC50 [3]: 1 to 10 nM
- Dmax [3]: 40 to 60%
- DC50 [4]: > 10000 nM
- Dmax [4]: < 20%

Compound: O=C1CCC(N2Cc3cc(-c4cc(CN5CC6COCC(C6)C5)cc5cncn45)ccc3C2=O)C(=O)N1 (centres unmarked) [Example 11]
- IC50 [2]: 500 to 1000 nM
- DC50 [3]: 100 to 1000 nM
- Dmax [3]: 40 to 60%

Compound: CCN(CC)Cc1cc(-c2ccc3c(c2)CN(C2CCC(=O)NC2=O)C3=O)n2cncc2c1 (centres unmarked) [Example 12, 3-(5-(7-((diethylamino)methyl)imidazo[1,5-a]pyridin-5-yl)-1-oxoisoindolin-2-yl) piperidine-2,6-dione]
- IC50 [2]: 100 to 500 nM
- DC50 [3]: 100 to 1000 nM
- Dmax [3]: 40 to 60%

Compound: O=C1CCC(N2Cc3cc(-c4cc(CNCc5ccccc5)cc5cncn45)ccc3C2=O)C(=O)N1 (centres unmarked) [Example 13, 3-(5-(7-((benzylamino)methyl)imidazo[1,5-a]pyridin-5-yl)-1-oxoisoindolin-2-yl) piperidine-2,6-dione]
- IC50 [2]: 100 to 500 nM
- DC50 [3]: 10 to 100 nM
- Dmax [3]: 20 to 40%

Compound: CC(C)(NCc1cc(-c2ccc3c(c2)CN(C2CCC(=O)NC2=O)C3=O)n2cncc2c1)c1ccccc1 (centres unmarked) [Example 18, 3-(1-oxo-5-(7-(((2-phenylpropan-2-yl)amino)methyl)imidazo[1,5-a]pyridin-5-yl)isoindolin-2-yl) piperidine-2,6-dione]
- IC50 [2]: 500 to 1000 nM
- DC50 [3]: 100 to 1000 nM
- Dmax [3]: 40 to 60%

Compound: CN(Cc1cc(-c2ccc3c(c2)CN(C2CCC(=O)NC2=O)C3=O)n2cncc2c1)C(C)(C)c1ccccc1 (centres unmarked) [Example 19, 3-(5-(7-((methyl (2-phenylpropan-2-yl)amino)methyl)imidazo[1,5-a]pyridin-5-yl)-1-oxoisoindolin-2-yl) piperidine-2,6-dione]
- IC50 [2]: 1000 to 5000 nM
- DC50 [3]: 100 to 1000 nM
- Dmax [3]: 20 to 40%

Compound: CC(NCc1cc(-c2ccc3c(c2)CN(C2CCC(=O)NC2=O)C3=O)n2cncc2c1)c1cccc(Cl)c1 (centres unmarked) [Example 20, 3-(5-(7-(((1-(3-chlorophenyl)ethyl)amino)methyl)imidazo[1,5-a]pyridin-5-yl)-1-oxoisoindolin-2-yl) piperidine-2,6-dione]
- IC50 [2]: 1000 to 5000 nM
- DC50 [3]: 10 to 100 nM
- Dmax [3]: 20 to 40%

Compound: Cc1ccc(CCNCc2cc(-c3ccc4c(c3)CN(C3CCC(=O)NC3=O)C4=O)n3cncc3c2)cc1Cl (centres unmarked) [Example 22]
- IC50 [2]: 1000 to 5000 nM
- DC50 [3]: > 1000 nM
- Dmax [3]: 20 to 40%

Compound: CC(NCc1cc(-c2ccc3c(c2)CN(C2CCC(=O)NC2=O)C3=O)n2cncc2c1)c1ccccc1Cl (centres unmarked) [Example 23, 3-(5-(7-(((1-(2-chlorophenyl)ethyl)amino)methyl)imidazo[1,5-a]pyridin-5-yl)-1-oxoisoindolin-2-yl) piperidine-2,6-dione]
- IC50 [2]: 1000 to 5000 nM
- DC50 [3]: 10 to 100 nM
- Dmax [3]: 20 to 40%

Compound: O=C1CCC(N2Cc3cc(-c4cc(CNCc5cccc6ccccc56)cc5cncn45)ccc3C2=O)C(=O)N1 (centres unmarked) [Example 24, 3-(5-(7-(((naphthalen-1-ylmethyl)amino)methyl)imidazo[1,5-a]pyridin-5-yl)-1-oxoisoindolin-2-yl) piperidine-2,6-dione]
- IC50 [2]: 1000 to 5000 nM
- DC50 [3]: 10 to 100 nM
- Dmax [3]: 20 to 40%

Compound: Cn1ccc2cccc(CNCc3cc(-c4ccc5c(c4)CN(C4CCC(=O)NC4=O)C5=O)n4cncc4c3)c21 (centres unmarked) [Example 25]
- IC50 [2]: 100 to 500 nM
- DC50 [3]: > 1000 nM
- Dmax [3]: < 20%

Compound: O=C1CCC(N2Cc3c(ccc(-c4cc(CN5CCCC5)cc5cncn45)c3F)C2=O)C(=O)N1 (centres unmarked) [Example 27, 3-(4-fluoro-1-oxo-5-(7-(pyrrolidin-1-ylmethyl)imidazo[1,5-a]pyridin-5-yl)isoindolin-2-yl) piperidine-2,6-dione]
- IC50 [2]: 500 to 1000 nM
- DC50 [3]: 10 to 100 nM
- Dmax [3]: 40 to 60%

Compound: COc1c(-c2cc(CN3CCCC3)cc3cncn23)ccc2c1CN(C1CCC(=O)NC1=O)C2=O (centres unmarked) [Example 31, 3-(4-methoxy-1-oxo-5-(7-(pyrrolidin-1-ylmethyl)imidazo[1,5-a]pyridin-5-yl)isoindolin-2-yl) piperidine-2,6-dione]
- IC50 [2]: 100 to 500 nM
- DC50 [3]: > 1000 nM
- Dmax [3]: < 20%

Compound: Cn1cnc2c(-c3ccc4c(c3)CN(C3CCC(=O)NC3=O)C4=O)cc(CNCCc3ccccc3Cl)cc21 (centres unmarked) [Example 51, 3-(5-(6-(((2-chlorophenethyl)amino)methyl)-1-methyl-1H-benzo[d]imidazol-4-yl)-1-oxoisoindolin-2-yl) piperidine-2,6-dione]
- IC50 [2]: 100 to 500 nM
- DC50 [3]: > 1000 nM
- Dmax [3]: 20 to 40%

Compound: O=C1CCC(N2Cc3cc(-c4ncc5ccc(CN6CCCC6)cn45)ccc3C2=O)C(=O)N1 (centres unmarked) [Example 53, 3-(1-oxo-5-(6-(pyrrolidin-1-ylmethyl)imidazo[1,5-a]pyridin-3-yl)isoindolin-2-yl) piperidine-2,6-dione]
- IC50 [2]: 5000 to 10000 nM
- DC50 [3]: > 1000 nM
- Dmax [3]: 20 to 40%
